Holding throughout (experiment): area under the viability dose-response curve (AUC) (AUC (arbitrary units, max 500 = no viability loss)); higher = less sensitive (higher viability)
Conditions in all cases: exposure time: 120 h; concentration range: 0.1 nM - 10 µM, 6 doses

The test system of assay [1] is 96F1 (fetal-I hepatoblastoma organoid with intermediate liver markers). The method, then:
(§1)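 Patient-derived hepatoblastoma tumor organoids (about 50 organoids per well, 384-well plates, medium with 5% BME) were treated with the PMC pediatric cancer drug library. Each drug was tested in duplicate at 6 concentrations (0.1 nM to 10 µM, 10-fold steps).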

Assay [2] has as its system 10F2 (fetal-II hepatoblastoma organoid with high liver markers). On the procedure: as §1
The test system of assay [3] is 8F1 (fetal-I hepatoblastoma organoid with intermediate liver markers). On the procedure:
as §1

For assay [4], the system named is 135F2 (fetal-II hepatoblastoma organoid with high liver markers). On the procedure: as §1
Assay [5] concerns 3E (embryonal-type hepatoblastoma organoid). The method, then: as §1
The test system of assay [6] is 17E (embryonal-type hepatoblastoma organoid). On the procedure:
as §1

The test system of assay [7] is 27F1 (fetal-I hepatoblastoma organoid with intermediate liver markers). The method, then:
as §1

Assay [8] concerns 13F2 (fetal-II hepatoblastoma organoid with high liver markers). The method, then:
as §1

For assay [9], the system named is 13E (embryonal-type hepatoblastoma organoid). The method, then: as §1
Assay [10] relates to 17F1 (fetal-I hepatoblastoma organoid with intermediate liver markers). The method, then:
as §1

Assay [11] has as its system 22E (embryonal-type hepatoblastoma organoid). On the procedure: as §1

On to `C/C=C1\NC(=O)[C@H]2CSSCC/C=C/[C@H](CC(=O)N[C@H](C(C)C)C(=O)N2)OC(=O)[C@H](C(C)C)NC1=O` [Romidepsin], for which the “area under the viability dose-response curve” value (shortened to “area”) is 54.5 in assay [1]; 141 in [2]; 145 in [3]; 137 in [4]; 87.9 in assay [5]; 104 in [6]. The “area” value in [7] came out at 165; in [8], 143; in assay [9], 123; in [10], 158.
With `CCN(CC)CCNC(=O)c1c(C)[nH]c(/C=C2\C(=O)Nc3ccc(F)cc32)c1C` [Sunitinib], the “area” value amounted to 464 in [1]; 385 in assay [2]; 461 in assay [3]; 437 in assay [4]; 471 in assay [5]; 424 in assay [6]. The “area” value in assay [7] is 498; in assay [8], 419; in assay [9], 463; in assay [10] it was more than 500.
For the compound `Cc1cnc(CNC(=O)c2c(=O)c3ccc(N4CCCN(C)CC4)nc3n3c2sc2ccccc23)cn1` [Pidnarulex], the “area” value in assay [1] is 453; in assay [3], 472; in assay [4], 402; in assay [5], 396; in assay [7], 489; in [11], 436.
Take `O=C(O)C(=O)O.[NH-][C@@H]1CCCC[C@H]1[NH-].[Pt+2]` [Oxaliplatin]: the “area” value in assay [2] is 457; in assay [3], 486; in assay [5] it was 490; in assay [6] it was more than 500; in [7], 481; in assay [8] it was 488. Also, the “area” value in assay [10] and in assay [11] was more than 500 in each case.
Take `CNCc1ccccc1-c1csc([C@@H](C)Nc2nc(C)nc3cc(OC)c(OC)cc23)c1` [BAY-293]: the “area” value was 461 in assay [1]; more than 500 in assay [3]; 446 in [4]; 458 in [5]; 488 in [7].
The corresponding values for `NC(=O)/C(=C/n1cnc(-c2cc(C(F)(F)F)cc(C(F)(F)F)c2)n1)c1cncnc1` [Eltanexor] are 406, 469, 371, 345 and 429.
For the compound `CNC(=O)c1cc(Oc2ccc(NC(=O)Nc3ccc(Cl)c(C(F)(F)F)c3)c(F)c2)ccn1` [Regorafenib], the “area” value in assay [1] stood at 452; in [2] it was 389; in assay [3] it was 290; in [4], 404; in assay [5], 387; in [6], 456. In addition, the “area” value turned out to be 447 in assay [7], 430 in assay [8], 418 in [9] and 428 in assay [10].
`CNC(=O)c1ccccc1Sc1ccc2c(/C=C/c3ccccn3)n[nH]c2c1` [Axitinib]: the “area” value in assay [1] came out at 480; in assay [2], 411; in assay [3], 495; in [4] it was 463; in [5] it was 421; in assay [6], 438. Further, the “area” value in [7] came to 478; in assay [8] it was 457; in assay [9] it was 427; in [10], 499.
As to `CN(C)C(=O)c1cc2cnc(Nc3ccc(N4CCNCC4)cn3)nc2n1C1CCCC1` [Ribociclib], the “area” value was 472 in assay [1]; 442 in [2]; 470 in [3]; 461 in assay [4]; 404 in assay [5]; 406 in assay [6]. Besides, the “area” value in [7] stood at 442; in assay [8], 422; in assay [9], 446; in [10], 473.
With `COc1cc2/c(=N/c3ccc(Br)cc3F)nc[nH]c2cc1OCC1CCN(C)CC1` [Vandetanib], the “area” value is 410 in assay [1]; 340 in [2]; 487 in assay [3]; 428 in assay [4]; 474 in [5]; 429 in assay [6]. In addition, the “area” value was 446 in assay [7], 373 in assay [8], 459 in [9] and 449 in assay [10].
Regarding `COCc1c(-c2cc3cc(C)cc(OC)c3s2)c2c(N)ncnn2c1CN1CCNC(=O)C1` [Rogaratinib], the “area” value is 485 in [1]; 496 in assay [3]; 473 in assay [4]; 361 in assay [5]; 475 in [7]; 440 in assay [11].
In the case of `O=P1(N(CCCl)CCCl)NC(OO)CCO1` (centres undefined) [4-Hydroperoxy cyclophosphamide (Cyclophosphamide)], the “area” value in assay [2] is 465; in assay [6], more than 500; in [8] it was more than 500; in assay [9], more than 500; in assay [10] it was more than 500.
Consider `O=NN(CCCl)C(=O)NC1CCCCC1` [Lomustine], for which the “area” value in assay [1] was 470; in assay [3], more than 500; in assay [4], 487; in [5], 446; in assay [7], more than 500; in assay [11], 455.
For `Cc1c(Cl)ccc2c1N=C/C2=C\c1[nH]c(=O)n(C(C(=O)NC(CO)CO)c2ccc(F)c(F)c2)c1O` (centres undefined) [RO-5963], the “area” value in assay [1] amounted to 446; in assay [4], 459; in [11] it was 449.
On to `CC[C@H](C)n1cc(C)c2c(C(=O)NCc3c(C)cc(C)[nH]c3=O)cc(-c3ccc(N4CCNCC4)nc3)cc21` [GSK-126], for which the “area” value in [1] is more than 500; in [3], more than 500; in assay [4], more than 500; in assay [5] it was 458; in assay [7] it was 499; in assay [11], more than 500.
Take `CN(C)CCNC(=O)c1cccn2c(=O)c3cc4ccccc4cc3nc12` [BMH-21]: the “area” value in assay [1] was determined as 445; in assay [3] it was 408; in [4], 416; in assay [5] it was 430; in assay [7] it was 434; in assay [11], 466.
In the case of `CC(C)(CN1C(=O)C(Cl)=C(Cl)C1=O)CN1C(=O)C(Cl)=C(Cl)C1=O`, the “area” value was more than 500 in assay [1]; more than 500 in assay [3]; 497 in assay [4]; more than 500 in assay [5]; more than 500 in assay [7]; 427 in assay [11].
For `N[C@@H]1CCCN(c2c(/C=C3\SC(=O)NC3=O)cccc2-c2ccccc2)C1` [AZD1208], the “area” value in assay [1] was more than 500; in assay [3] it was more than 500; in [4], 487; in assay [5], 430; in assay [7] it was 471.
Regarding `Nc1cc(F)ccc1NC(=O)c1ccc(CNC(=O)/C=C/c2cccnc2)cc1` [Tucidinostat], the “area” value came to 474 in assay [1]; 472 in [3]; 443 in assay [4]; 432 in [5]; 458 in assay [7].
For the compound `Cn1cc(-n2cnc3c(NCc4nc5cc(Cl)c(Cl)cc5[nH]4)nc(N4CCOCC4)nc32)cn1` [SR-4835], the “area” value in assay [1] is 279; in [3] it was 292; in assay [4], 277; in assay [5] it was 196; in [7], 264; in [11], 327.
`Cn1nccc1Nc1nccc(-c2cc3c(s2)C(C)(C)N(CCN2CCOCC2)C3=O)n1` [Temuterkib]: the “area” value was 484 in [1]; more than 500 in assay [3]; 409 in [4]; 443 in assay [5]; 440 in assay [7]; more than 500 in assay [11].
